Experimental findings from ChEMBL document CHEMBL5036359, “Repositioning Food and Drug Administration-Approved Drugs for Inhibiting Biliverdin IXβ Reductase B as a Novel Thrombocytopenia Therapeutic Target” (J Med Chem, 2022) are described below.

In assay [1] the target is T1, Flavin reductase (NADPH) (Homo sapiens) (UniProt P30043).
T1 sequence (whole entry): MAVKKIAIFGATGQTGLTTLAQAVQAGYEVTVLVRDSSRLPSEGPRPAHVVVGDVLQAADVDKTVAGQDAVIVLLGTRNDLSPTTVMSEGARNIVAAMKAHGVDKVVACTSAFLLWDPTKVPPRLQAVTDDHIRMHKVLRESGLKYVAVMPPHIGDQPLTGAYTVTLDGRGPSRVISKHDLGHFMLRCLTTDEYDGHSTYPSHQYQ
Kind of assay: Binding affinity to human N-terminal His6-tagged and thrombin cleavage fused BLVRB expressed in Escherichia coli BL21 (DE3) assessed as change in enthalpy by isothermal titration calorimetry. (In general: ITC needs no label: the signal is the heat of the interaction.)

In assay [2] the target is T1, Flavin reductase (NADPH) (Homo sapiens). Put plainly: Binding affinity to human N-terminal His6-tagged and thrombin cleavage fused BLVRB expressed in Escherichia coli BL21 (DE3) assessed as change in entropy by isothermal titration calorimetry.
Assay [3] shares this target. Kind of assay: Binding affinity to human N-terminal His6-tagged and thrombin cleavage fused BLVRB expressed in Escherichia coli BL21 (DE3) assessed as change in gibbs free energy by isothermal titration calorimetry.
The target of a further assay is T2, Flavin reductase (NADPH) (Homo sapiens, UniProt P30043).
T2 sequence (P30043 whole entry): T1 sequence (whole entry)
Put plainly: Binding affinity to human N-terminal His6-tagged and thrombin cleavage fused BLVRB expressed in Escherichia coli BL21 (DE3) assessed as dissociation constant by isothermal titration calorimetry.

With `CC1(C)CCC(C)(C)c2cc(NC(=O)c3ccc(C(=O)O)cc3)ccc21`, in assay [1], the deltaH was -4.49 kcal/mol. The TdeltaS in assay [2] worked out at 3.5 kcal/mol. Further, the deltaG in assay [3] is -7.99 kcal/mol.
For orientation: Kd means the free concentration of one partner at which half of the binding sites on the other are occupied at equilibrium, for simple one-to-one binding. On to `O=C(O)c1cccc(-c2noc(-c3ccccc3F)n2)c1`, for which the deltaH in assay [1] is -11 kcal/mol. Also, the TdeltaS in assay [2] is -1.83 kcal/mol. In assay [3], the deltaG was -9.13 kcal/mol. Further, the dissociation constant (Kd) on Flavin reductase (NADPH) came to 200 nM.
Consider `O=C(O)c1c(Cl)c(Cl)c(Cl)c(Cl)c1-c1c2cc(Br)c(=O)c(Br)c-2oc2c(Br)c(O)c(Br)cc12`, for which, in assay [1], the deltaH was -3.88 kcal/mol. Further, the TdeltaS in assay [2] came out at 4.12 kcal/mol. In addition, in assay [3], the deltaG is -8 kcal/mol. Further, the Kd on Flavin reductase (NADPH) came to 1360 nM.
Consider `O=C(O)c1cc(/N=N/c2ccc(S(=O)(=O)Nc3ccccn3)cc2)ccc1O`, for which the deltaH in assay [1] is -9.43 kcal/mol. Further, the TdeltaS in assay [2] was -0.76 kcal/mol. In assay [3], the deltaG was -8.67 kcal/mol.
On to `O=C1OC2(c3ccccc31)c1cc(I)c(O)c(I)c1Oc1c2cc(I)c(O)c1I` [ERYTHROSINE], for which, in assay [1], the deltaH was -6.38 kcal/mol. The TdeltaS in assay [2] turned out to be 2.91 kcal/mol. Also, the deltaG in assay [3] is -9.28 kcal/mol. Further, the Kd at Flavin reductase (NADPH) worked out at 160 nM.
As for `Cc1nc(-c2ccc(OCC(C)C)c(C#N)c2)sc1C(=O)O` [FEBUXOSTAT], the deltaH in assay [1] is -5.75 kcal/mol. Further, the TdeltaS in assay [2] stood at 2.14 kcal/mol. The deltaG in assay [3] was -7.9 kcal/mol. In addition, the Kd on Flavin reductase (NADPH) was 1630 nM.
Turning to `O=C(O)c1ccc(-n2nc(-c3ccccc3O)nc2-c2ccccc2O)cc1` [DEFERASIROX], the deltaH in assay [1] was -7.32 kcal/mol. Also, in assay [2], the TdeltaS came out at 0.55 kcal/mol. Further, in assay [3], the deltaG was -7.87 kcal/mol. Further, the Kd on Flavin reductase (NADPH) is 1710 nM.
